Laboratory results as given in PubChem BioAssay (NCI).
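Briefly, cells in 96-well plates were exposed to five compound concentrations for 48 h, and endpoints were estimated by linear interpolation. At the TGI there is no net growth.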

Columns and labels:
Assay in all cases: NCI tumour cell line growth inhibition, 48 h
[1] = tested on: SNB-75 CNS
[2] = tested on: SF-295 CNS
[3] = tested on: OVCAR-8 ovarian
[4] = tested on: SF-539 CNS
[5] = tested on: MOLT-4 leukemia
[6] = tested on: MCF7 breast
[7] = tested on: KM20L2 colon
[8] = tested on: SNB-78 CNS
[9] = tested on: SK-MEL-28 melanoma
[10] = tested on: HCT-15 colon
[11] = tested on: LOX IMVI melanoma
[12] = tested on: SK-MEL-5 melanoma
[13] = tested on: A498 renal
[14] = tested on: MALME-3M melanoma
[15] = tested on: HL-60(TB) leukemia
[16] = tested on: NCI-H226 lung
[17] = tested on: OVCAR-3 ovarian
[18] = tested on: KM12 colon
[19] = tested on: DMS 114 small cell lung
[20] = tested on: UO-31 renal
[21] = tested on: SW-620 colon
[22] = tested on: CAKI-1 renal
[23] = tested on: NCI-H460 lung
[24] = tested on: SNB-19 CNS
[25] = tested on: RXF 393 renal
[26] = tested on: HOP-18 NSCLC
[27] = tested on: HOP-92 NSCLC
[28] = tested on: M19-MEL melanoma
[29] = tested on: SK-OV-3 ovarian
[30] = tested on: P388/ADR leukemia
[31] = tested on: CCRF-CEM leukemia
[32] = tested on: DMS 273 small cell lung
[33] = tested on: COLO 205 colon
[34] = tested on: SF-268 CNS
[35] = tested on: P388 leukemia
[36] = tested on: HT29 colon
[37] = tested on: SK-MEL-2 melanoma
[38] = tested on: HOP-62 NSCLC
[39] = tested on: SN12K1 renal
[40] = tested on: RPMI-8226 leukemia
[41] = tested on: A549 NSCLC
[42] = tested on: OVCAR-5 ovarian
[43] = tested on: OVCAR-4 ovarian
[44] = tested on: HCC-2998 colon
[45] = tested on: UACC-62 melanoma
[46] = tested on: HCT-116 colon
[47] = tested on: K-562 leukemia
[48] = tested on: U251 CNS
[49] = tested on: XF 498 CNS
[50] = tested on: DLD-1 colon
[51] = tested on: NCI/ADR-RES ovarian
[52] = tested on: EKVX NSCLC
[53] = tested on: SN12C renal
[54] = tested on: NCI-H522 lung
[55] = tested on: UACC-257 melanoma
[56] = tested on: IGROV1 ovarian
[57] = tested on: LXFL 529 NSCLC
[58] = tested on: NCI-H23 lung
[59] = tested on: ACHN renal
[60] = tested on: RXF-631 renal
[61] = tested on: 786-0 renal
[62] = tested on: TK-10 renal
[63] = tested on: M14 melanoma
[64] = tested on: DU-145 prostate
[65] = tested on: MDA-MB-231 breast
[66] = tested on: T-47D breast
[67] = tested on: BT-549 breast
[68] = tested on: SR leukemia
[69] = tested on: MDA-N
[70] = tested on: HS 578T breast
[71] = tested on: MDA-MB-435
[72] = tested on: PC-3 prostate

## O=C1C=C2SC3C[C@@]24CC1[N+]1=c2c4c(c(O)c4c2=C(C=N4)CC1)N3
[1]
  TGI: 12.2 µM
[2]
  TGI: 11.6 µM
[3]
  TGI: 4.21 µM
[4]
  TGI: 3.34 µM
[5]
  TGI: 4.11 µM
[6]
  TGI: 4.23 µM
[7]
  TGI: 3.81 µM
[8]
  TGI: 5.88 µM
[9]
  TGI: 4.09 µM
[10]
  TGI: 13.7 µM
[11]
  TGI: 6.65 µM
[12]
  TGI: 3.44 µM
[13]
  TGI: 16.6 µM
[14]
  TGI: 3.3 µM
[15]
  TGI: 3.78 µM
[16]
  TGI: 4.76 µM
[17]
  TGI: 2.51 µM
[18]
  TGI: 4.74 µM
[19]
  TGI: 2.85 µM
[20]
  TGI: 30.3 µM
[21]
  TGI: 5.44 µM
[22]
  TGI: 7.99 µM
[23]
  TGI: 9.03 µM
[24]
  TGI: 9.66 µM
[25]
  TGI: 3.84 µM
[26]
  TGI: 18.9 µM
[27]
  TGI: > 100 µM
[28]
  TGI: 3.44 µM
[29]
  TGI: 7 µM
[30]
  TGI: 23.1 µM
[31]
  TGI: > 100 µM
[32]
  TGI: 4.12 µM
[33]
  TGI: 3.57 µM
[34]
  TGI: 2.9 µM
[35]
  TGI: 4.15 µM
[36]
  TGI: > 26 µM
[37]
  TGI: 3.35 µM
[38]
  TGI: 32.6 µM
[39]
  TGI: 3.76 µM
[40]
  TGI: 7.38 µM
[41]
  TGI: 21.2 µM
[42]
  TGI: 3.9 µM
[43]
  TGI: 3.13 µM
[44]
  TGI: 6.78 µM
[45]
  TGI: 3.23 µM
[46]
  TGI: 3.35 µM
[47]
  TGI: 8.26 µM
[48]
  TGI: 3.33 µM
[49]
  TGI: 3.34 µM
[50]
  TGI: 5.12 µM
[51]
  TGI: 16.1 µM
[52]
  TGI: 4.8 µM
[53]
  TGI: 6.95 µM
[54]
  TGI: 2.99 µM
[55]
  TGI: 3.17 µM
[56]
  TGI: 6.48 µM

## COC(=O)C1=C(c2ccc(OC)c(OC)c2)OC(c2cc(OC)c(OC)c(OC)c2)C1 (stereo not drawn)
[1]
  TGI: 25.6 µM
[2]
  TGI: > 100 µM
[3]
  TGI: > 100 µM
[4]
  TGI: > 100 µM
[7]
  TGI: > 100 µM
[57]
  TGI: > 100 µM
[8]
  TGI: 68.5 µM
[9]
  TGI: > 100 µM
[11]
  TGI: > 100 µM
[12]
  TGI: > 100 µM
[13]
  TGI: 63 µM
[14]
  TGI: > 100 µM
[16]
  TGI: > 100 µM
[17]
  TGI: > 100 µM
[18]
  TGI: > 100 µM
[19]
  TGI: > 100 µM
[20]
  TGI: > 100 µM
[21]
  TGI: > 100 µM
[22]
  TGI: > 100 µM
[23]
  TGI: > 100 µM
[58]
  TGI: > 100 µM
[25]
  TGI: 66.9 µM
[26]
  TGI: > 100 µM
[59]
  TGI: > 100 µM
[27]
  TGI: 65.2 µM
[28]
  TGI: > 100 µM
[29]
  TGI: 56.8 µM
[31]
  TGI: > 100 µM
[32]
  TGI: > 100 µM
[34]
  TGI: > 100 µM
[36]
  TGI: > 100 µM
[37]
  TGI: > 100 µM
[60]
  TGI: > 100 µM
[38]
  TGI: 47.4 µM
[40]
  TGI: > 100 µM
[41]
  TGI: > 100 µM
[42]
  TGI: > 100 µM
[43]
  TGI: > 100 µM
[61]
  TGI: 74.4 µM
[44]
  TGI: > 100 µM
[47]
  TGI: > 100 µM
[62]
  TGI: > 100 µM
[48]
  TGI: > 100 µM
[49]
  TGI: > 100 µM
[50]
  TGI: > 100 µM
[52]
  TGI: > 100 µM
[63]
  TGI: > 100 µM
[53]
  TGI: > 100 µM
[55]
  TGI: > 100 µM
[56]
  TGI: > 100 µM

## S=c1[nH]nc(Cc2ccccc2)c(=S)[nH]1
[1]
  TGI: 89.1 µM
[2]
  TGI: > 100 µM
[3]
  TGI: > 100 µM
[4]
  TGI: > 100 µM
[5]
  TGI: > 100 µM
[6]
  TGI: > 100 µM
[64]
  TGI: > 100 µM
[57]
  TGI: > 100 µM
[8]
  TGI: > 100 µM
[9]
  TGI: > 100 µM
[10]
  TGI: > 100 µM
[11]
  TGI: 99.3 µM
[12]
  TGI: > 82.2 µM
[13]
  TGI: > 81.8 µM
[14]
  TGI: > 100 µM
[15]
  TGI: > 100 µM
[16]
  TGI: > 100 µM
[17]
  TGI: > 100 µM
[18]
  TGI: > 100 µM
[20]
  TGI: > 100 µM
[21]
  TGI: > 100 µM
[22]
  TGI: > 100 µM
[23]
  TGI: > 93.7 µM
[58]
  TGI: > 100 µM
[65]
  TGI: > 100 µM
[66]
  TGI: 75.4 µM
[24]
  TGI: > 100 µM
[25]
  TGI: > 100 µM
[26]
  TGI: > 100 µM
[67]
  TGI: 96.9 µM
[27]
  TGI: > 73.1 µM
[28]
  TGI: > 100 µM
[68]
  TGI: > 100 µM
[29]
  TGI: > 100 µM
[31]
  TGI: > 100 µM
[32]
  TGI: > 100 µM
[69]
  TGI: > 100 µM
[70]
  TGI: > 100 µM
[33]
  TGI: > 100 µM
[34]
  TGI: > 21.3 µM
[36]
  TGI: > 100 µM
[37]
  TGI: > 76.9 µM
[60]
  TGI: > 100 µM
[38]
  TGI: > 100 µM
[40]
  TGI: > 100 µM
[41]
  TGI: > 100 µM
[42]
  TGI: > 100 µM
[71]
  TGI: > 100 µM
[43]
  TGI: > 100 µM
[61]
  TGI: > 100 µM
[44]
  TGI: > 71.8 µM
[45]
  TGI: > 50.1 µM
[72]
  TGI: 88.2 µM
[46]
  TGI: > 100 µM
[47]
  TGI: > 100 µM
[62]
  TGI: > 94.1 µM
[48]
  TGI: > 100 µM
[49]
  TGI: > 100 µM
[50]
  TGI: > 100 µM
[51]
  TGI: > 100 µM
[52]
  TGI: > 31.6 µM
[63]
  TGI: > 100 µM
[53]
  TGI: > 100 µM
[54]
  TGI: > 100 µM
[55]
  TGI: > 100 µM
[56]
  TGI: > 100 µM

## Nc1c(O)cc(N=C2C(=O)C=CC=C2C(=O)O)c(O)c1C(=O)O
[1]
  TGI: > 100 µM
[2]
  TGI: > 100 µM
[3]
  TGI: > 100 µM
[4]
  TGI: > 100 µM
[5]
  TGI: > 100 µM
[7]
  TGI: > 100 µM
[57]
  TGI: > 100 µM
[8]
  TGI: > 100 µM
[9]
  TGI: > 41.3 µM
[10]
  TGI: > 100 µM
[11]
  TGI: > 100 µM
[12]
  TGI: > 100 µM
[13]
  TGI: > 100 µM
[14]
  TGI: > 57.4 µM
[15]
  TGI: > 100 µM
[16]
  TGI: > 100 µM
[17]
  TGI: > 100 µM
[18]
  TGI: > 100 µM
[19]
  TGI: > 100 µM
[20]
  TGI: > 100 µM
[21]
  TGI: > 100 µM
[22]
  TGI: > 100 µM
[58]
  TGI: > 100 µM
[24]
  TGI: > 100 µM
[25]
  TGI: > 31.6 µM
[26]
  TGI: > 100 µM
[59]
  TGI: > 100 µM
[27]
  TGI: > 100 µM
[28]
  TGI: 37.9 µM
[68]
  TGI: > 100 µM
[29]
  TGI: > 100 µM
[32]
  TGI: > 100 µM
[33]
  TGI: > 100 µM
[36]
  TGI: > 100 µM
[37]
  TGI: > 91.2 µM
[60]
  TGI: > 100 µM
[38]
  TGI: > 100 µM
[40]
  TGI: > 100 µM
[41]
  TGI: > 100 µM
[42]
  TGI: > 100 µM
[43]
  TGI: > 100 µM
[61]
  TGI: > 100 µM
[44]
  TGI: > 31.6 µM
[45]
  TGI: > 100 µM
[46]
  TGI: > 100 µM
[47]
  TGI: > 100 µM
[62]
  TGI: > 100 µM
[48]
  TGI: > 100 µM
[49]
  TGI: > 100 µM
[50]
  TGI: > 31.6 µM
[52]
  TGI: > 100 µM
[63]
  TGI: > 59.2 µM
[53]
  TGI: > 100 µM
[54]
  TGI: > 100 µM
[55]
  TGI: > 100 µM
[56]
  TGI: > 100 µM
